What all share (assay): TGFα-shedding assay-based GPCR screening with chimeric Gα subunit proteins
Holding throughout (format): cell-based

Experiment [1] addresses T1, 348 GPCRs (Homo sapiens, UniProt P35414).
T1 sequence (P35414 1-380): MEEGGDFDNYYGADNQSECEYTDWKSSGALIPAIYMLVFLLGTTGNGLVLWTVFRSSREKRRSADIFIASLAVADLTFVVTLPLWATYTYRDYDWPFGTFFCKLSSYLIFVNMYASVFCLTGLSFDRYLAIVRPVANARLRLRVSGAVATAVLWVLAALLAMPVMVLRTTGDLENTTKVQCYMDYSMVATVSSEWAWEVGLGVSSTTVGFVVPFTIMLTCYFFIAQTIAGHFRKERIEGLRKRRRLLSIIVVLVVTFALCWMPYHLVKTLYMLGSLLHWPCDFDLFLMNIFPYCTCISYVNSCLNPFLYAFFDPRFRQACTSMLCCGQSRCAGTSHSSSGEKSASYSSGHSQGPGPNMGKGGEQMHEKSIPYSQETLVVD
Conditions: 10µM, Favipiravir 100μM.

Experiment [2] has as its target T2, 348 GPCRs (Homo sapiens, UniProt P41586).
T2 construct: expressed in transfected cells; host or cells: HEK293A
T2 sequence (P41586 21-468): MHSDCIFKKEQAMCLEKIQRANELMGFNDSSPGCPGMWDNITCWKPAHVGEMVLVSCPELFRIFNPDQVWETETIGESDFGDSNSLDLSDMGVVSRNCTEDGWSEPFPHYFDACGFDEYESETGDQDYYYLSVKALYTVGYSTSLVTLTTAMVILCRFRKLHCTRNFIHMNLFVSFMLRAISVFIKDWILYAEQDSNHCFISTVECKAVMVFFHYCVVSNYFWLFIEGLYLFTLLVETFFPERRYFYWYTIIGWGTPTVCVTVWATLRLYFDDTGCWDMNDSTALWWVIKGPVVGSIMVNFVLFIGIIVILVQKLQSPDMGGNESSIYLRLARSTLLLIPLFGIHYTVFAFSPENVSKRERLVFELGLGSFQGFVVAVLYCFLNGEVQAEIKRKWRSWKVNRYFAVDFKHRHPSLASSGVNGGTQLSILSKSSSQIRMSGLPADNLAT
To be noted: 10µM, Favipiravir 100μM.

For experiment [3], the target named is 348 GPCRs (Homo sapiens, UniProt P41143). Conditions: read-out: % GPCR activation compared to TPA, OPRD1 (opioid receptor, delta 1 (DOR)); 10µM, Favipiravir 100μM.
Chain of 348 GPCRs (Homo sapiens, UniProt P41143) (P41143 whole entry): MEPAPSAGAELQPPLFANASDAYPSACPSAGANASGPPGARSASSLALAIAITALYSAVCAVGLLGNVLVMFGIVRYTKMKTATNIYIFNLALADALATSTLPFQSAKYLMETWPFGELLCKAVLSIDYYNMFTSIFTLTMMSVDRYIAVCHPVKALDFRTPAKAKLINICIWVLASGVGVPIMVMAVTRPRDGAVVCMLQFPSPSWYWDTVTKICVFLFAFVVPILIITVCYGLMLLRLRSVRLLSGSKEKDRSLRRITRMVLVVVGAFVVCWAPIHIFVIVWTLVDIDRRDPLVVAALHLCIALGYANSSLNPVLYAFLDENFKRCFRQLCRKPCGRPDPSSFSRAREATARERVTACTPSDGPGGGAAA
For experiment [4], the target named is 348 GPCRs (Homo sapiens, UniProt Q96LA9). Conditions: 10µM, Favipiravir 100μM.
Chain of 348 GPCRs (Homo sapiens, UniProt Q96LA9) (Q96LA9 whole entry): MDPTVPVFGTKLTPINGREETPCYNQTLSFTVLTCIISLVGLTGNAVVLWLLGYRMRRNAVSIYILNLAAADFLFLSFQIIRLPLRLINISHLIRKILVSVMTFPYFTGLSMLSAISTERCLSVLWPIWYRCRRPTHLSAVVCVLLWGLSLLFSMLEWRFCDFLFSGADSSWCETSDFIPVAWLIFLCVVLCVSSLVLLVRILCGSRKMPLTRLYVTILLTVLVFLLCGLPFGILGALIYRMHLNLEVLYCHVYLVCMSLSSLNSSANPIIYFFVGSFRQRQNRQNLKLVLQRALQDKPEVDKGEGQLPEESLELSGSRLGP
In experiment [5] the target is T3, 348 GPCRs (Homo sapiens, UniProt Q96PE1).
T3 sequence (Q96PE1 34-1338): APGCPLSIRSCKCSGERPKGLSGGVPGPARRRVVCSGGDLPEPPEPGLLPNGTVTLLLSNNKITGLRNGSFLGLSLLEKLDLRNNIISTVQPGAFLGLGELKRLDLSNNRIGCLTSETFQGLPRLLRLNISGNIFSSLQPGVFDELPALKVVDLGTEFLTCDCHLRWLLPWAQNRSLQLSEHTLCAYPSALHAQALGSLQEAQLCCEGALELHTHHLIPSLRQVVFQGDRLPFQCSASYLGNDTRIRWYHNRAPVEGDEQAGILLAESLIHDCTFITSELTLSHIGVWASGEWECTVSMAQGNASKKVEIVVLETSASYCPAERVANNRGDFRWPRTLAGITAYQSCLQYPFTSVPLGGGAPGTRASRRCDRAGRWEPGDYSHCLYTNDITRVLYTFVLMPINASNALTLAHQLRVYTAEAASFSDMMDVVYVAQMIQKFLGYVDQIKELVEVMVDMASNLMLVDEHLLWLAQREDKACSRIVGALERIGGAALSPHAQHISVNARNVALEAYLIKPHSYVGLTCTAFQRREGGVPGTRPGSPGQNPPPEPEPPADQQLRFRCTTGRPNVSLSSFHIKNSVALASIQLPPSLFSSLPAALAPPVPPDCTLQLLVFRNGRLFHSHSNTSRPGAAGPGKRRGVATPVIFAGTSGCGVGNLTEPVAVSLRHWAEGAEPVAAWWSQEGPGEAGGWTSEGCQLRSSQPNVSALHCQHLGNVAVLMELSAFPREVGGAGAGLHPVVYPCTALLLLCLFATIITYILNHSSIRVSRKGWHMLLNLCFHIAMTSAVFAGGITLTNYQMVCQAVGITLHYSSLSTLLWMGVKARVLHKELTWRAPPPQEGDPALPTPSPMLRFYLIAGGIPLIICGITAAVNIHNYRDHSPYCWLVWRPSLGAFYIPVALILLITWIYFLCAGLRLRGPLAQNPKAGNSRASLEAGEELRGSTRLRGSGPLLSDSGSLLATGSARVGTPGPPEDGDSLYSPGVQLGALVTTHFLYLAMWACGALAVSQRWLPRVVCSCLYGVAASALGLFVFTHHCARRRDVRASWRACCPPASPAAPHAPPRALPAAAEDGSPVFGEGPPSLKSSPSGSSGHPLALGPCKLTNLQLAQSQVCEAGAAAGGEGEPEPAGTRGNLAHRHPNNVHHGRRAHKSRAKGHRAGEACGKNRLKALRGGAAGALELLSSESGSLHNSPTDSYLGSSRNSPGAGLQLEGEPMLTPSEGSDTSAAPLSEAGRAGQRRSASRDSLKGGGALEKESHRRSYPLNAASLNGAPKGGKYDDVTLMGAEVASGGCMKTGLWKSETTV

The target of experiment [6] is T4, 348 GPCRs (Homo sapiens, UniProt O15303).
T4 construct: expressed in transfected cells; host or cells: HEK293A
T4 sequence (O15303 25-877): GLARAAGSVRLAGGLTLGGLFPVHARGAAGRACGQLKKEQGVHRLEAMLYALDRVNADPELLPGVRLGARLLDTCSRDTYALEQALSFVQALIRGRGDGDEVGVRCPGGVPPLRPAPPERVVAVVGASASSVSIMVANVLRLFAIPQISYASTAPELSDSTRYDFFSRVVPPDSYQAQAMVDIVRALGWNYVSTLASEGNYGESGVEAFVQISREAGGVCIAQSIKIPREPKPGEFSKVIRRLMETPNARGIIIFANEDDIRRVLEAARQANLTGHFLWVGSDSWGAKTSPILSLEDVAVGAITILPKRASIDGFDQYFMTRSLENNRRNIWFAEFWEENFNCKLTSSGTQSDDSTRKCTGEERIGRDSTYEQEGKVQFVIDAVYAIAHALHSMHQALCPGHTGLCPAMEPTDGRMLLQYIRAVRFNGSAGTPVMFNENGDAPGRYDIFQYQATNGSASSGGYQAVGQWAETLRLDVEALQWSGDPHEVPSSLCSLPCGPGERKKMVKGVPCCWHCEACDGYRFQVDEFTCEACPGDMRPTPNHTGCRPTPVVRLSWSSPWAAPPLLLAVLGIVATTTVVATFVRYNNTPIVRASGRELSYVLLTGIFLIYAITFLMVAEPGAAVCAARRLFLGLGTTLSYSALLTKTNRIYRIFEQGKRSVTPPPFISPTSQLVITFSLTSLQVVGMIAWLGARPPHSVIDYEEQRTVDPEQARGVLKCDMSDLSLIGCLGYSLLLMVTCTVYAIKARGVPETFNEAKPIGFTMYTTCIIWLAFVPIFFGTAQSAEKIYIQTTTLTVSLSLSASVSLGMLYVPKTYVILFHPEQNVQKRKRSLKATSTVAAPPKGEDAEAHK
To be noted: 10µM, Favipiravir 100μM.

[7] abbreviates: APLNR (apelin receptor), read-out: % GPCR activation compared to TPA.
[8] abbreviates: ADCYAP1 (ADCYAP receptor type I), read-out: % GPCR activation compared to TPA.
The mark [9] stands for this setting: MRGPRX4 (MAS-related GPR, member X4), read-out: % GPCR activation compared to TPA.
[10] abbreviates: MRGX4 (MAS-related GPR, member X4), read-out: % GPCR activation compared to TPA.
The mark [11] stands for this setting: GPCR GPR124 (Adhesion G Protein-Coupled Receptor A2 (ADGRA2)), read-out: % GPCR activation compared to TPA.
Setting [12] is: GRM6 (glutamate receptor, metabotropic 6), read-out: % GPCR activation compared to TPA.
Where [13] appears, read: read-out: % GPCR activation compared to TPA, APLNR (apelin receptor).
Setting [14] is: read-out: % GPCR activation compared to TPA, ADCYAP1 (ADCYAP receptor type I).
The mark [15] stands for this setting: read-out: % GPCR activation compared to TPA, MRGPRX4 (MAS-related GPR, member X4).
The mark [16] stands for this setting: read-out: % GPCR activation compared to TPA, MRGX4 (MAS-related GPR, member X4).
Setting [17] is: read-out: % GPCR activation compared to TPA, GPCR GPR124 (Adhesion G Protein-Coupled Receptor A2 (ADGRA2)).
Setting [18] is: read-out: % GPCR activation compared to TPA, GRM6 (glutamate receptor, metabotropic 6).

Molecules are shown by their SMILES. Read-outs that look alike come from different tables or passages of the source.

Take `CC(C)C(=O)OC[C@H]1O[C@@H](n2ccc(NO)nc2=O)[C@H](O)[C@@H]1O` [molnupiravir]: the figures for the activation at 10 µM in experiment [1] (setting [7]), in experiment [5] (setting [11]) and in experiment [6] (setting [12]) were -5.92%, -0.928% and -2.76%, respectively. The activation at 100 µM was -0.597% in experiment [2] (setting [8]), -1.93% in experiment [3], -2.9% in experiment [4] (setting [9]) and -28.1% in experiment [4] (setting [10]).

With `CC(C)OC(=O)[C@H](C)N[P@](=O)(OC[C@H]1O[C@@H](n2ccc(=O)[nH]c2=O)[C@](C)(F)[C@@H]1O)Oc1ccccc1` [sofosbuvir], the results for the activation at 10 µM in experiment [1] (setting [13]), in experiment [5] (setting [17]) and in experiment [6] (setting [18]) were -5.57%, 1.09% and 2.66%, respectively. The activation at 100 µM is -0.225% in experiment [2] (setting [14]), -2.64% in experiment [3], -0.776% in experiment [4] (setting [15]) and -14.4% in experiment [4] (setting [16]).

On to `N#C[C@@]1(c2ccc3c(N)ncnn23)O[C@H](CO)[C@@H](O)[C@H]1O` [GS441524], for which the activation at 10 µM in experiment [1] (setting [7]) was -3.07%; in experiment [5] (setting [11]), 0.29%; in experiment [6] (setting [12]), -1.17%. The activation at 100 µM in experiment [2] (setting [8]) is 3.21%; in experiment [3], -2.68%; in experiment [4] (setting [9]) it was -1.84%; in experiment [4] (setting [10]), 0.701%.

Consider `NC(=O)c1nc(F)cnc1O` [favipiravir, 6-fluoro-3-hydroxy-2-pyrazinecarboxamide], for which the activation at 10 µM was -2.25% in experiment [1] (setting [7]) and -0.482% in experiment [6] (setting [12]). For the same compound, the activation at 100 µM is -0.29% in experiment [2] (setting [8]); -3.28% in experiment [3]; -1.47% in experiment [4] (setting [9]); -11.1% in experiment [4] (setting [10]); -1.17% in experiment [5] (GPCR GPR124 (Adhesion G Protein-Coupled Receptor A2 (ADGRA2)), 100μM, read-out: % GPCR activation compared to TPA).

Consider `CCC(CC)COC(=O)[C@H](C)N[P@](=O)(OC[C@H]1O[C@@](C#N)(c2ccc3c(N)ncnn23)[C@H](O)[C@@H]1O)Oc1ccccc1` [remdesivir], for which the activation at 10 µM in experiment [1] (setting [13]) was 3.68%; in experiment [5] (setting [17]), -0.926%; in experiment [6] (setting [18]), -1.74%. In addition, the activation at 100 µM in experiment [2] (setting [14]) is 2.11%; in experiment [3], -3.05%; in experiment [4] (setting [15]), -0.071%; in experiment [4] (setting [16]), -1.24%.

The record behind these values is PMC10175918 (Communications Biology, 2023).
